According to patent US20240270737A1, “SMALL MOLECULAR INHIBITORS OF STING SIGNALING COMPOSITIONS AND METHODS OF USE” (STINGINN INC., priority 2021, published 2024):

These molecules were tested on IFNβ expression (type I IFNβ promoter driving luciferase) (assay: IFNβ promoter luciferase assay in hTERT-pIFNβ-Glu cells transfected with ISD). Conditions: Homo sapiens.
Format: cell-based, human
Protocol: Inhibition of IFNβ expression was measured by Luciferase induction at 24 hours after transfection of ISD, DMSO is shown (230), ISD treatment only (220) was used as a control, according to an embodiment of the invention;
Inhibition of IFNβ expression was measured by Luciferase induction at 24 hours after transfection of ISD, Mock is shown (210), ISD treatment only (220) was used as a control, according to an embodiment of the invention;
Identification of small molecule inhibitors of STING. In the presence of cytosolic DNA species, STING becomes activated to drive the transcription of cytokines such as type I IFN. Compounds binding to STING via TSA were subsequently examined for their ability to prevent cytosolic DNA species from activating the type I interferon (IFN) promoter, using a live cell assay. This assay comprised immortalized human fibroblasts (hTERT) that were stably transfected with the type I IFN promoter driving luciferase as well as the CMV promoter driving SEAP (hTERT-pIFNβ-Glu). The live cell assay has previously been disclosed in PCT/US2019/025380 entitled IFN-Beta Reporter System for Immortalized Primary Cells inventor Glen N. Barber, which was filed Apr. 2, 2018 and published as WO2019195285, and which is herein incorporated by reference in its entirety and for all purposes. The ability of the small molecules to prevent activation of the type I IFN promoter and the transcription of luciferase, but not SEAP in response to cytosolic DNA species was assessed. The activation of STING, typically by CDNs, in turn activates the transcription factors NF-κB and IRF3, both of which are required to induce the transcriptional stimulation of the Type I IFN promoter, but not the CMV promoter as IRF3 and NF-kB transcription factor binding sites are not contained in the CMV promoter. The assay identified the small molecule Compound W1 in the first screen (HTS), where the level of luciferase was not able to activate the type I IFN promoter or induce the expression of luciferase (see Table I and Table II).
Inhibition of IFNβ expression was measured by Luciferase induction at 24 hours after transfection of ISD. ISD only treatment was used as control.
Inhibition of IFNβ expression was measured by Luciferase induction at 24 hours after transfection of ISD, Mock is shown (210), ISD treatment only (220) was used as a control.
Luciferase assay: hTERT-BJ1 Telomerase Fibroblasts stably expressing the luciferase gene under the control of the interferon-beta promoter and SEAP gene under control of the CMV promoter) (hTERT-pIFNβ-Glu) were generated by the Barber laboratory. Luciferase assay was performed using Secrete-Pair Dual Luminescence Assay Kit from GeneCopoeia following the manufacturer's protocol.
For `CCN(C)c1nc(C)cc(N2CCN(Cc3csc(-c4ccc(OC)c(OC)c4)n3)CC2)n1` [Compound W21, 4-(4-{[2-(3,4-dimethoxyphenyl)-1,3-thiazol-4-yl]methyl}piperazin-1-yl)-N-ethyl-N,6-dimethylpyrimidin-2-amine], the inhibition at 5 µM was -84%.
Work on `Cc1cc(N2CCN(Cc3csc(-c4ccc(C(F)(F)Cl)cc4)n3)CC2)nc(N(C)C)n1` [Compound W34, 4-[4-({2-[4-(chlorodifluoromethyl)phenyl]-1.3-thiazol-4-yl}methyl)piperazin-1-yl]-N.N.6-trimethylpyrimidin-2-amine] yielded an inhibition at 5 µM of 50%.
Molecule `CNc1nc(C)cc(N2CCN(Cc3csc(-c4ccc(OC)c(OC)c4)n3)CC2)n1` [Compound W23, 4-(4-{[2-(3,4-dimethoxyphenyl)-1,3-thiazol-4-yl]methyl}piperazin-1-yl)-N,6-dimethylpyrimidin-2-amine] has an inhibition at 5 µM of -33%.
`Cc1cc(N2CCN(Cc3csc(-c4ccc(C5CC5)cc4)n3)CC2)nc(N(C)C)n1` [Compound W30, 4-(4-{[2-(4-cyclopropylphenyl)-1.3-thiazol-4-yl]methyl}piperazin-1-yl)-N.N.6-trimethylpyrimidin-2-amine] gave an inhibition at 5 µM of 50%.
For `Cc1cc(N2CCN(Cc3csc(-c4ccc(CC(F)(F)F)cc4)n3)CC2)nc(N(C)C)n1` [Compound W33, N.N.4-trimethyl-6-[4-({2-[4-(2.2.2-trifluoroethyl)phenyl]-1.3-thiazol-4-yl}methyl)piperazin-1-yl]pyrimidin-2-amine], the inhibition at 5 µM was 65%.
With `Cc1cc(N2CCN(Cc3csc(-c4ccc(C(C)C)cc4)n3)CC2)nc(N(C)C)n1` [Compound W29, N.N.4-trimethyl-6-[4-({2-[4-(propan-2-yl)phenyl]-1.3-thiazol-4-yl}methyl)piperazin-1-yl]pyrimidin-2-amine] the inhibition at 5 µM was 50%.
`COc1ccc(-c2nc(CN3CCN(c4cc(C)nc(N5CCCC5)n4)CC3)cs2)cc1OC` [Compound W24, 4-(4-{[2-(3,4-dimethoxyphenyl)-1,3-thiazol-4-yl]methyl}piperazin-1-yl)-6-methyl-2-(pyrrolidin-1-yl)pyrimidine] gave an inhibition at 5 µM of -26%.
`Cc1cc(N2CCN(Cc3csc(-c4ccc(C#N)cc4)n3)CC2)nc(N(C)C)n1` [Compound W10, 4-[4-({4-[2-(dimethylamino)-6-methylpyrimidin-4-yl]piperazin-1-yl}methyl)-1,3-thiazol-2-yl]benzonitrile] was tested, and the inhibition at 5 µM was -62%.
For `Cc1cc(N2CCN(Cc3noc(-c4ccccc4)n3)CC2)nc(N(C)C)n1` [Compound W16, N,N,4-trimethyl-6-{4-[(5-phenyl-1,2,4-oxadiazol-3-yl)methyl]piperazin-1-yl}pyrimidin-2-amine], the inhibition at 5 µM was 26%.
`COc1ccc(-c2nc(CN3CCN(c4cc(C)nc(C(C)C)n4)CC3)cs2)cc1OC` [Compound W2] was tested, and the inhibition at 5 µM was -4%.
In the case of `Cc1cc(N2CCN(Cc3csc(-c4ccc(S(C)(=O)=O)cc4)n3)CC2)nc(N(C)C)n1` [Compound W12, 4-(4-{[2-(4-methanesulfonylphenyl)-1,3-thiazol-4-yl]methyl}piperazin-1-yl)-N,N,6-trimethylpyrimidin-2-amine], the inhibition at 5 µM is reported as -40%.
With `COc1ccc(-c2nc(CN3CCN(c4cc(C(F)(F)F)nc(N(C)C)n4)CC3)cs2)cc1OC` [Compound W28, 4-(4-{[2-(3,4-dimethoxyphenyl)-1,3-thiazol-4-yl]methyl}piperazin-1-yl)-N,N-dimethyl-6-(trifluoromethyl)pyrimidin-2-amine] the inhibition at 5 µM was -89%.
For `Cc1cc(N2CCN(Cc3csc(-c4ccc5c(c4)OCO5)n3)CC2)nc(N(C)C)n1` [Compound W9, 4-(4-{[2-(2H-1,3-benzodioxol-5-yl)-1,3-thiazol-4-yl]methyl}piperazin-1-yl)-N,N,6-trimethylpyrimidin-2-amine], the inhibition at 5 µM was -40%.
With `Cc1cc(N2CCN(Cc3cnc(-c4ccccc4)o3)CC2)nc(N(C)C)n1` [Compound W17, N,N,4-trimethyl-6-{4-[(2-phenyl-1,3-oxazol-5-yl)methyl]piperazin-1-yl}pyrimidin-2-amine] the inhibition at 5 µM was 2%.
`Cc1cc(N2CCN(Cc3csc(-c4ccccc4)n3)CC2)nc(N(C)C)n1` [Compound W6, N,N,4-trimethyl-6-{4-[(2-phenyl-1,3-thiazol-4-yl)methyl]piperazin-1-yl}pyrimidin-2-amine] showed an inhibition at 5 µM of -34%.
`Cc1cc(N2CCN(Cc3csc(-c4ccc5c(c4)OCC5)n3)CC2)nc(N(C)C)n1` [Compound W35] was tested, and the inhibition at 5 µM was 0%.
Molecule `COc1cc(N2CCN(Cc3csc(-c4ccc(OC)c(OC)c4)n3)CC2)nc(N(C)C)n1` [Compound W27, 4-(4-{[2-(3,4-dimethoxyphenyl)-1,3-thiazol-4-yl]methyl}piperazin-1-yl)-6-methoxy-N,N-dimethylpyrimidin-2-amine] has an inhibition at 5 µM of -64%.
Molecule `CCc1cc(N2CCN(Cc3csc(-c4ccc(OC)c(OC)c4)n3)CC2)nc(N(C)C)n1` [Compound W25, 4-(4-{[2-(3,4-dimethoxyphenyl)-1,3-thiazol-4-yl]methyl}piperazin-1-yl)-6-ethyl-N,N-dimethylpyrimidin-2-amine] has an inhibition at 5 µM of -126%.
Work on `COc1cc(C(F)(F)F)ccc1-c1nc(CN2CCN(c3cc(C)nc(N(C)C)n3)CC2)cs1` [Compound W31, 4-[4-({2-[2-methoxy-4-(trifluoromethyl)phenyl]-1.3-thiazol-4-yl}methyl)piperazin-1-yl]-N.N.6-trimethylpyrimidin-2-amine] yielded an inhibition at 5 µM of 60%.
`CCN(CC)c1nc(C)cc(N2CCN(Cc3csc(-c4ccc(OC)c(OC)c4)n3)CC2)n1` [Compound W22, 4-(4-{[2-(3,4-dimethoxyphenyl)-1,3-thiazol-4-yl]methyl}piperazin-1-yl)-N,N-diethyl-6-methylpyrimidin-2-amine] gave an inhibition at 5 µM of 28%.
Work on `COc1ccc(-c2nc(CN3CCN(c4cc(C)nc(N(C)C)n4)CC3)cs2)cc1` [Compound W7, 4-(4-{[2-(4-methoxyphenyl)-1,3-thiazol-4-yl]methyl}piperazin-1-yl)-N,N,6-trimethylpyrimidin-2-amine] yielded an inhibition at 5 µM of -11%.
`Cc1cc(N2CCN(Cc3coc(-c4ccccc4)n3)CC2)nc(N(C)C)n1` [Compound W18, N,N,4-trimethyl-6-{4-[(2-phenyl-1,3-oxazol-4-yl)methyl]piperazin-1-yl}pyrimidin-2-amine] showed an inhibition at 5 µM of -82%.
`Cc1cc(N2CCN(Cc3csc(-c4ccc(C(C)(F)F)cc4)n3)CC2)nc(N(C)C)n1` [Compound W32, 4-[4-({2-[4-(1.1-difluoroethyl)phenyl]-1.3-thiazol-4-yl}methyl)piperazin-1-yl]-N.N.6-trimethylpyrimidin-2-amine] showed an inhibition at 5 µM of 70%.
Molecule `COc1cccc(-c2nc(CN3CCN(c4cc(C)nc(N(C)C)n4)CC3)cs2)c1` [Compound W8, 4-(4-{[2-(3-methoxyphenyl)-1,3-thiazol-4-yl]methyl}piperazin-1-yl)-N,N,6-trimethylpyrimidin-2-amine] has an inhibition at 5 µM of -59%.
Work on `COc1ccc(-c2nc(CN3CCN(c4cc(C(C)C)nc(N(C)C)n4)CC3)cs2)cc1OC` [Compound W26, 4-(4-{[2-(3,4-dimethoxyphenyl)-1,3-thiazol-4-yl]methyl}piperazin-1-yl)-N,N-dimethyl-6-(propan-2-yl)pyrimidin-2-amine] yielded an inhibition at 5 µM of -120%.
